Assay results published in PubChem BioAssay AID1963958 (Molecular Pharmacology Branch, DTP, NCI, 2024).

Test system: MDA-MB-231 multicell spheroids, viability
Assay: Anticancer human tumor MDA-MB-231 cell line growth inhibition [PI3K];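 note: spheroids exposed to agents for seven days before reading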;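 for viability, T/C: percent of vehicle control luminescence with DMSO treated spheroids as 100%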
Settings: for IC50: curve of first compound; for viability, T/C: stronger effect = lower value
Description: Combinatorial screen of targeted agents with the PI3K inhibitors inavolisib, alpelisib, duvelisib, and copanlisib in multi-cell type tumor spheroids
A high-throughput screen of multi-cell type tumor spheroids was designed to identify active combinations of targeted small molecules and PI3K pathway inhibitors. Complex spheroids include a stromal component modeled by human endothelial cells (HUVEC) and fibroblasts modeled by human mesenchymal stem cells (MSCs). The concentration ranges selected for each drug and investigational agent were based upon clinically achievable concentrations if the clinical Cmax of the agent was known.
Compounds. The drugs and investigational agents: inavolisib (NSC800729), alpelisib (NSC765974), duvelisib (NSC772469), copanlisib (NSC816437), ipatasertib (NSC767898), afuresertib (NSC778305), talazoparib (NSC767125), sapanisertib (NSC764658), selumetinib (NSC741078), tovorafenib (DAY101, NSC766906), vemurafenib (NSC761431), ravoxertinib (NSC781343), sotorasib (NSC818433), MRTX1133 (NSC 836407), abemaciclib (NSC 768073), palbociclib (NSC758247), venetoclax (NSC 766270), SY5609 (NSC837396), enzalutamide (NSC755605), and darolutamide (NSC825331), were obtained from the National Cancer Institute (NCI) Developmental Therapeutics Program Chemical Repository. The FDA-approved anticancer drug set is available from the NCI Developmental Therapeutics Program. […] The stock solutions were prepared in dimethyl sulfoxide (DMSO, Sigma-Aldrich, St. Louis, MO, cat. D2650) at 800-fold the tested concentration and stored at -70 degrees C prior to their use. All drugs and investigational agents were tested over a range starting from a high concentration at or near the clinical Cmax and decreasing in half-log increments. If the clinical Cmax for an agent had not been determined, the highest concentration tested was 10 microM.
Cell Culture. All cells were maintained in an incubator at 37 degrees C and 5% CO2 with 95% humidity. The PDC lines were cultured according to standard operating procedures established by the NCI PDMR (https://pdmr.cancer.gov/sops/default.htm). All PDCs were thawed and cultured in Matrigel-coated flasks prepared with a working solution of 1X Ham's F-12 nutrient mix, without supplementation (Invitrogen, Waltham, MA, cat. 11765054), 100 U/mL penicillin-streptomycin (Invitrogen, cat. 15140122), and 2.5% Matrigel (Corning Inc., Corning, NY, cat. 354248) for the first three passages. The 354836-022-R-J1-PDC, 475296-252-R-J1-PDC, and 997726-040-R-J2-PDC lines were cultured in 6A media, which includes advanced DMEM/F-12 (Thermo Fisher Scientific, cat. 12634028), 10 mM HEPES (Thermo Fisher Scientific, cat. 15630080), 1X GlutaMAX supplement (Thermo Fisher Scientific, cat. 35050061), 0.1 mg/mL primocin (InvivoGen, San Diego, CA, cat. ant-pm-2), 10% defined fetal bovine serum, heat inactivated (HyClone Laboratories Inc., Logan, UT, cat. SH30070.03HI), 50% L-WRN conditioned media (ATCC, cat. CRL-3276), 1.25 mM N-Acetyl-L-cysteine (Sigma-Aldrich, cat. A9165), 10 mM nicotinamide (Sigma-Aldrich, cat. N0636), 1X B-27 supplement (Thermo Fisher Scientific, cat. 17504044), 1X N-2 supplement (Thermo Fisher Scientific, cat. 17502048), and 10 microM Y-27632 dihydrochloride (Tocris Bioscience, Bristol, United Kingdom, cat. 1254). The 624824-186-R-J2-PDC line was cultured in 6C/Colon 1B media, which includes all 6A media components plus 50 ng/mL human EGF recombinant protein (Thermo Fisher Scientific, cat. PHG0311). […]

[1] = second compound 0.00316 µM, first compound 0.0316 µM
[2] = second compound 0.00316 µM, first compound 0.1 µM
[3] = second compound 0.01 µM, first compound 0.0316 µM
[4] = second compound 0.01 µM, first compound 0.1 µM
[5] = second compound 0.0316 µM, first compound 0.0316 µM
[6] = second compound 0.0316 µM, first compound 0.1 µM
[7] = second compound 0.1 µM, first compound 0.0316 µM
[8] = second compound 0.1 µM, first compound 0.1 µM
[9] = second compound 0.316 µM, first compound 0.0316 µM
[10] = second compound 0.316 µM, first compound 0.1 µM
[11] = second compound 1 µM, first compound 0.0316 µM
[12] = second compound 1 µM, first compound 0.1 µM

## CC(C)NCC(C(=O)N1CCN(c2ncnc3c2C(C)CC3O)CC1)c1ccc(Cl)cc1 (centres undefined) + CC(Nc1ccc2c(c1)OCCn1cc(N3C(=O)OCC3C(F)F)nc1-2)C(N)=O
Second compound 0.00316 µM
  IC50: 7030 nM
Second compound 0.01 µM
  IC50: 6950 nM
Second compound 0.0316 µM
  IC50: 5100 nM
Second compound 0.1 µM
  IC50: 4310 nM
Second compound 0.316 µM
  IC50: 2690 nM
Second compound 1 µM
  IC50: 1920 nM
[1]
  viability, T/C: 95.8%
[2]
  viability, T/C: 94.6%
Second compound 0.00316 µM, first compound 0.316 µM
  viability, T/C: 99.3%
Second compound 0.00316 µM, first compound 1 µM
  viability, T/C: 86.6%
Second compound 0.00316 µM, first compound 3.16 µM
  viability, T/C: 67.1%
Second compound 0.00316 µM, first compound 10 µM
  viability, T/C: 42.5%
[3]
  viability, T/C: 87.5%
[4]
  viability, T/C: 93.1%
Second compound 0.01 µM, first compound 0.316 µM
  viability, T/C: 81.8%
Second compound 0.01 µM, first compound 1 µM
  viability, T/C: 81.6%
Second compound 0.01 µM, first compound 3.16 µM
  viability, T/C: 60.1%
Second compound 0.01 µM, first compound 10 µM
  viability, T/C: 45.2%
[5]
  viability, T/C: 86.6%
[6]
  viability, T/C: 84.1%
Second compound 0.0316 µM, first compound 0.316 µM
  viability, T/C: 72.7%
Second compound 0.0316 µM, first compound 1 µM
  viability, T/C: 71.4%
Second compound 0.0316 µM, first compound 3.16 µM
  viability, T/C: 56.8%
Second compound 0.0316 µM, first compound 10 µM
  viability, T/C: 39.9%
[7]
  viability, T/C: 71.6%
[8]
  viability, T/C: 72.8%
Second compound 0.1 µM, first compound 0.316 µM
  viability, T/C: 67.7%
Second compound 0.1 µM, first compound 1 µM
  viability, T/C: 63.5%
Second compound 0.1 µM, first compound 3.16 µM
  viability, T/C: 54.5%
Second compound 0.1 µM, first compound 10 µM
  viability, T/C: 38.2%
[9]
  viability, T/C: 66.2%
[10]
  viability, T/C: 63.7%
Second compound 0.316 µM, first compound 0.316 µM
  viability, T/C: 59.7%
Second compound 0.316 µM, first compound 1 µM
  viability, T/C: 61.6%
Second compound 0.316 µM, first compound 3.16 µM
  viability, T/C: 47.2%
Second compound 0.316 µM, first compound 10 µM
  viability, T/C: 30.8%
[11]
  viability, T/C: 64%
[12]
  viability, T/C: 61.3%
Second compound 1 µM, first compound 0.316 µM
  viability, T/C: 58.9%
Second compound 1 µM, first compound 1 µM
  viability, T/C: 52.9%
Second compound 1 µM, first compound 3.16 µM
  viability, T/C: 48.3%
Second compound 1 µM, first compound 10 µM
  viability, T/C: 34.9%

## Cn1ncnc1[C@H]1c2n[nH]c(=O)c3cc(F)cc(c23)N[C@@H]1c1ccc(F)cc1 + CC(Nc1ccc2c(c1)OCCn1cc(N3C(=O)OCC3C(F)F)nc1-2)C(N)=O
Second compound 0.00316 µM
  IC50: > 100 nM
Second compound 0.01 µM
  IC50: > 100 nM
Second compound 0.0316 µM
  IC50: > 100 nM
Second compound 0.1 µM
  IC50: 74 nM
Second compound 0.316 µM
  IC50: 47.1 nM
Second compound 1 µM
  IC50: 17.6 nM
Second compound 0.00316 µM, first compound 0.000316 µM
  viability, T/C: 99.1%
Second compound 0.00316 µM, first compound 0.001 µM
  viability, T/C: 93.9%
Second compound 0.00316 µM, first compound 0.00316 µM
  viability, T/C: 97.8%
Second compound 0.00316 µM, first compound 0.01 µM
  viability, T/C: 87.8%
[1]
  viability, T/C: 82.4%
[2]
  viability, T/C: 74.5%
Second compound 0.01 µM, first compound 0.000316 µM
  viability, T/C: 90.7%
Second compound 0.01 µM, first compound 0.001 µM
  viability, T/C: 95%
Second compound 0.01 µM, first compound 0.00316 µM
  viability, T/C: 81.8%
Second compound 0.01 µM, first compound 0.01 µM
  viability, T/C: 84.4%
[3]
  viability, T/C: 78.2%
[4]
  viability, T/C: 78.3%
Second compound 0.0316 µM, first compound 0.000316 µM
  viability, T/C: 78.1%
Second compound 0.0316 µM, first compound 0.001 µM
  viability, T/C: 86.7%
Second compound 0.0316 µM, first compound 0.00316 µM
  viability, T/C: 75.4%
Second compound 0.0316 µM, first compound 0.01 µM
  viability, T/C: 73.5%
[5]
  viability, T/C: 63.7%
[6]
  viability, T/C: 58.9%
Second compound 0.1 µM, first compound 0.000316 µM
  viability, T/C: 70.8%
Second compound 0.1 µM, first compound 0.001 µM
  viability, T/C: 69.7%
Second compound 0.1 µM, first compound 0.00316 µM
  viability, T/C: 65%
Second compound 0.1 µM, first compound 0.01 µM
  viability, T/C: 62.4%
[7]
  viability, T/C: 50.5%
[8]
  viability, T/C: 50.1%
Second compound 0.316 µM, first compound 0.000316 µM
  viability, T/C: 62.7%
Second compound 0.316 µM, first compound 0.001 µM
  viability, T/C: 64.3%
Second compound 0.316 µM, first compound 0.00316 µM
  viability, T/C: 59.4%
Second compound 0.316 µM, first compound 0.01 µM
  viability, T/C: 56.9%
[9]
  viability, T/C: 49.4%
[10]
  viability, T/C: 47.7%
Second compound 1 µM, first compound 0.000316 µM
  viability, T/C: 63.2%
Second compound 1 µM, first compound 0.001 µM
  viability, T/C: 58%
Second compound 1 µM, first compound 0.00316 µM
  viability, T/C: 53.9%
Second compound 1 µM, first compound 0.01 µM
  viability, T/C: 51.6%
[11]
  viability, T/C: 50%
[12]
  viability, T/C: 45.4%
